{"source": "ChEMBL document CHEMBL3882245", "about": "“Novel aminopyridine derivatives having aurora a selective inhibitory action” (2008)", "test": "Cytotoxicity against human HeLaS3 cells assessed as cell growth inhibition at 0.3 nM after 3 days by WST-8 assay", "type": "functional", "conditions": "HeLa S3, 72 h, read-out: GI"}
{"smiles": "CC(=O)O[C@@]12CO[C@@H]1C[C@H](O)[C@@]1(C)C(=O)[C@H](O)C3=C(C)[C@@H](OC(=O)[C@H](O)[C@@H](NC(=O)OC(C)(C)C)c4ccccc4)C[C@@](O)([C@@H](OC(=O)c4ccccc4)[C@H]21)C3(C)C", "note": "[DOCETAXEL ANHYDROUS]", "values": [{"measurement": "inhibition of growth at 0.0003 µM", "result": "25.6 to 53.4", "unit": "%"}]}
